# Reference: article PMC13476069, “Cryo-EM structure of the bicarbonate receptor GPR30” (eLife, 2026)
# Key:
# [1] = system: mock HEK293 cells; settings: mock stable HEK293 cells; NaHCO3; normalized to 50 µM ATP; four-parameter fit
# Experimental: (§1) HEK293A cells (Thermo Fisher Scientific, Cell lines are authenticated by the supplier. No additional authentication was performed by the authors in this study. Mycoplasma contamination is not tested.) were maintained at 37°C and 5% CO2. […] Stable cell lines were established through antibiotic drug selection. The HEK293A cells were transfected with the N-terminal HA-tagged wild-type and mutant Gpr30 and maintained in the culture medium containing 1 mg/ml of G418.
# (§2) Stable HEK293 cells (2×10^4 cells/well) were seeded into a black wall and clear bottom 96-well plate 24 hr before the assay. […] The cells were washed twice with HEPES buffer. The cells were stimulated with indicated concentrations of NaHCO3 and 50 µM ATP at 37°C and 0.03% CO2. The fluorescence intensity was analyzed using FlexStation 3 (Molecular Devices, Ex/Em = 490/525 nm). The difference between the maximum and minimum fluorescent values during 15–60 s was normalized by those with ATP stimulation. Nonlinear regression (four-parameter) was used for curve fitting, and EC50 and Top (maximum response) were calculated.
# (§3) Nonlinear regression (four-parameter) was used for curve-fitting over the data shown in Figure 3F, and EC50 and Top (maximum response) were calculated. The values of cell surface and total expression are derived from Figure 3.—figure supplement 1 and 3, respectively.
# [2] = target: T1, human GPR30 wild-type (WT) (Homo sapiens, UniProt Q99527); settings: physiological concentration of bicarbonate ions; ref Jo-Watanabe et al., 2024; cited from earlier work
# [3] = target: T2, human GPR30 Q138^3.33A mutant (Homo sapiens, UniProt Q99527, Q138A); settings: effect of Q138^3.33 mutation; ref Jo-Watanabe et al., 2024; cited from earlier work
# [4] = system: GPR30 E115^2.61 mutant; settings: effect of E115^2.61 mutation; ref Jo-Watanabe et al., 2024; cited from earlier work
# [5] = system: GPR30 H307^7.36 mutant; settings: effect of H307^7.36 mutation; ref Jo-Watanabe et al., 2024; cited from earlier work
# [6] = target: human GPR30 R122^ECL1A mutant (Homo sapiens, UniProt Q99527, R122A); settings: stable HEK293, HA-tagged R122^ECL1A, NaHCO3, four-parameter fit
# Excerpt: (§4) Human Gpr30 cDNA was obtained from human hepatoblastoma-derived HepG2 cells. The coding sequences of human Gpr30 were inserted into the multi-cloning site of the plasmid vector pCXN2, which was generated in our laboratory via modification of pCAGGS, between the KpnI and EcoRI sites. The […] HA-tagged Gpr30 was amplified using a reverse primer containing the HA sequence. One amino acid mutation of human GPR30 was generated as follows: the targeted amino acid was changed to alanine (GCC) using a two-step PCR method with the QuikChange Primer Design Program by Agilent (https://www.agilent.com/store/primerDesignProgram.jsp), and the coding sequence with each mutation was inserted into the multi-cloning site of pCXN2 between the KpnI and EcoRI sites. The mutations generated were D111A, E121A, R122A, D125A, S134A, Q138A, D210A, Q215A, E218A, N276A, Q296A, C207A, P71A, and H307A.
# as §1, §2, §3
# [7] = target: T2, human GPR30 Q138^3.33A mutant
# Excerpt: as §4, §1, §2, §3
# [8] = target: human GPR30 S134^3.29A mutant (Homo sapiens, UniProt Q99527, S134A); settings: stable HEK293, HA-tagged S134^3.29A, NaHCO3, four-parameter fit
# Excerpt: as §4, §1, §2, §3
# [9] = target: human GPR30 D125^ECL1A mutant (Homo sapiens, UniProt Q99527, D125A)
# Excerpt: as §4, §1, §2, §3
# [10] = target: human GPR30 E121^ECL1A mutant (Homo sapiens, UniProt Q99527, E121A); settings: stable HEK293, HA-tagged E121^ECL1A, NaHCO3, four-parameter fit
# Excerpt: as §4, §1, §2, §3
# [11] = target: human GPR30 N276^6.52A mutant (Homo sapiens, UniProt Q99527, N276A); settings: stable HEK293, HA-tagged N276^6.52A, NaHCO3, four-parameter fit
# Excerpt: as §4, §1, §2, §3
# [12] = target: human GPR30 Q296^ECL3A mutant (Homo sapiens, UniProt Q99527, Q296A); settings: stable HEK293, HA-tagged Q296^ECL3A, NaHCO3, four-parameter fit
# Excerpt: as §4, §1, §2, §3
# [13] = target: T1, human GPR30 wild-type (WT); settings: stable HEK293, HA-tagged WT GPR30, NaHCO3, four-parameter fit
# Excerpt: as §4, §1, §2, §3
# [14] = target: human GPR30 D111^2.56A mutant (Homo sapiens, UniProt Q99527, D111A); settings: stable HEK293, HA-tagged D111^2.56A, NaHCO3, four-parameter fit
# Excerpt: as §4, §1, §2, §3
# [15] = target: human GPR30 P71^1.44A mutant (Homo sapiens, UniProt Q99527, P71A)
# Excerpt: as §4, §1, §2, §3
# [16] = target: human GPR30 Q215^5.39A mutant (Homo sapiens, UniProt Q99527, Q215A); settings: stable HEK293, HA-tagged Q215^5.39A, NaHCO3, four-parameter fit
# Excerpt: as §4, §1, §2, §3
# [17] = target: human GPR30 D210^ECL2A mutant (Homo sapiens, UniProt Q99527, D210A)
# Excerpt: as §4, §1, §2, §3
# [18] = target: human GPR30 C207^ECL2A mutant (Homo sapiens, UniProt Q99527, C207A)
# Excerpt: as §4, §1, §2, §3
# [19] = target: human GPR30 E218^5.42A mutant (Homo sapiens, UniProt Q99527, E218A); settings: stable HEK293, HA-tagged E218^5.42A, NaHCO3, four-parameter fit
# Excerpt: as §4, §1, §2, §3
# [20] = Q138^3.33A vs wild-type, calcium assay
# [21] = stable HEK293, HA-tagged Q138^3.33A, NaHCO3, four-parameter fit
# [22] = stable HEK293, HA-tagged D125^ECL1A, NaHCO3, four-parameter fit
# [23] = stable HEK293, HA-tagged D210^ECL2A, NaHCO3, four-parameter fit
# human GPR30 Q296^ECL3A mutant, sequence (Q99527 whole entry Q296A): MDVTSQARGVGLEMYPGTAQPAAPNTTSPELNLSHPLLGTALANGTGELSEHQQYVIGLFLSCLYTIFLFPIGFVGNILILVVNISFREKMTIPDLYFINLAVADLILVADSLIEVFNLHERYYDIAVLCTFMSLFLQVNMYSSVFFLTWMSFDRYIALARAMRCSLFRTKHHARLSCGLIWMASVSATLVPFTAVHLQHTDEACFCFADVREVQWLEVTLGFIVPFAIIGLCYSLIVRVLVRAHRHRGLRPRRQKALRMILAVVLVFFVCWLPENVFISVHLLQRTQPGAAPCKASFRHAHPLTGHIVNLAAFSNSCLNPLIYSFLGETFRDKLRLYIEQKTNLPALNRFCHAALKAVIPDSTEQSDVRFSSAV
# human GPR30 D111^2.56A mutant, sequence (Q99527 whole entry D111A): as the sequence (Q99527 whole entry Q296A) above, with D111A, A296Q counted along it
# T2 sequence (Q99527 whole entry Q138A): as the sequence (Q99527 whole entry Q296A) above, with Q138A, A296Q counted along it
# human GPR30 E218^5.42A mutant, sequence (Q99527 whole entry E218A): as the sequence (Q99527 whole entry Q296A) above, with E218A, A296Q counted along it
# T1 sequence (Q99527 whole entry): as the sequence (Q99527 whole entry Q296A) above, with A296Q counted along it
# human GPR30 Q215^5.39A mutant, sequence (Q99527 whole entry Q215A): as the sequence (Q99527 whole entry Q296A) above, with Q215A, A296Q counted along it
# human GPR30 E121^ECL1A mutant, sequence (Q99527 whole entry E121A): as the sequence (Q99527 whole entry Q296A) above, with E121A, A296Q counted along it
# human GPR30 D210^ECL2A mutant, sequence (Q99527 whole entry D210A): as the sequence (Q99527 whole entry Q296A) above, with D210A, A296Q counted along it
# human GPR30 N276^6.52A mutant, sequence (Q99527 whole entry N276A): as the sequence (Q99527 whole entry Q296A) above, with N276A, A296Q counted along it
# human GPR30 S134^3.29A mutant, sequence (Q99527 whole entry S134A): as the sequence (Q99527 whole entry Q296A) above, with S134A, A296Q counted along it
# human GPR30 D125^ECL1A mutant, sequence (Q99527 whole entry D125A): as the sequence (Q99527 whole entry Q296A) above, with D125A, A296Q counted along it
# human GPR30 R122^ECL1A mutant, sequence (Q99527 whole entry R122A): as the sequence (Q99527 whole entry Q296A) above, with R122A, A296Q counted along it
# human GPR30 P71^1.44A mutant, sequence (Q99527 whole entry P71A): as the sequence (Q99527 whole entry Q296A) above, with P71A, A296Q counted along it
# human GPR30 C207^ECL2A mutant, sequence (Q99527 whole entry C207A): as the sequence (Q99527 whole entry Q296A) above, with C207A, A296Q counted along it
smiles,measurement,setting,value
O=C(O)O [bicarbonate],Top (maximum response),[1],0.08132
same,"activation of GPR30, Gq-coupled calcium responses",[2],activates
same,bicarbonate-dependent calcium response,[3],abolish
same,bicarbonate-dependent calcium response,[4],abolish
same,bicarbonate-dependent calcium response,[5],abolish
same,EC50,[6],3.46 mM
same,LogEC50,[6],0.5393
same,Top (maximum response),[6]; normalized to 50 µM ATP,0.877
same,EC50 compared with wild-type GPR30,[7]; [20],higher
same,maximum response relative to GPR30 wild-type,[7]; [20],one-third
same,reactivity to bicarbonate (calcium response),"[7]; effect of Q138^3.33A mutation, stable HEK293",reduced reactivity
same,EC50,[7]; [21],10.8 mM
same,LogEC50,[7]; [21],1.033
same,Top (maximum response),"[7]; stable HEK293, HA-tagged Q138^3.33A, NaHCO3, normalized to 50 µM ATP, four-parameter fit",0.4166
same,EC50,[8],4.97 mM
same,LogEC50,[8],0.6966
same,Top (maximum response),[8]; normalized to 50 µM ATP,0.8079
same,bicarbonate-dependent calcium responses,"[9]; effect of D125^ECL1A mutation, stable HEK293",abolished
same,EC50,[9]; [22],Unstable
same,LogEC50,[9]; [22],Unstable
same,Top (maximum response),"[9]; stable HEK293, HA-tagged D125^ECL1A, NaHCO3, normalized to 50 µM ATP, four-parameter fit",0.0868
same,EC50,[10],4.71 mM
same,LogEC50,[10],0.6733
same,Top (maximum response),[10]; normalized to 50 µM ATP,0.9457
same,EC50,[11],2.89 mM
same,LogEC50,[11],0.4605
same,Top (maximum response),[11]; normalized to 50 µM ATP,0.948
same,EC50,[12],3.09 mM
same,LogEC50,[12],0.4903
same,Top (maximum response),[12]; normalized to 50 µM ATP,0.9637
same,EC50,[13],3.83 mM
same,LogEC50,[13],0.5838
same,Top (maximum response),[13]; normalized to 50 µM ATP,1.155
same,EC50,[14],2.35 mM
same,LogEC50,[14],0.3703
same,Top (maximum response),[14]; normalized to 50 µM ATP,1.244
same,bicarbonate-dependent calcium responses,"[15]; effect of P71^1.44A mutation, stable HEK293",abolished
same,Top (maximum response),"[15]; stable HEK293, HA-tagged P71^1.44A, NaHCO3, normalized to 50 µM ATP, four-parameter fit",0.1079
same,EC50,[16],4.51 mM
same,LogEC50,[16],0.6544
same,Top (maximum response),[16]; normalized to 50 µM ATP,0.8471
same,maximum response relative to GPR30 wild-type,"[17]; D210^ECL2A vs wild-type, calcium assay",half
same,reactivity to bicarbonate (calcium response),"[17]; effect of D210^ECL2A mutation, stable HEK293",reduced reactivity
same,EC50,[17]; [23],5.41 mM
same,LogEC50,[17]; [23],0.7335
same,Top (maximum response),"[17]; stable HEK293, HA-tagged D210^ECL2A, NaHCO3, normalized to 50 µM ATP, four-parameter fit",0.6256
same,bicarbonate-dependent calcium responses,"[18]; effect of C207^ECL2A mutation, stable HEK293",abolished
same,Top (maximum response),"[18]; stable HEK293, HA-tagged C207^ECL2A, NaHCO3, normalized to 50 µM ATP, four-parameter fit",0.06277
same,EC50,[19],3.72 mM
same,LogEC50,[19],0.5701
same,Top (maximum response),[19]; normalized to 50 µM ATP,0.9426
